Key:
[1] = Matsubura et al. 1999; cited from earlier work
TIGR4 strain = test: Attachment of TIGR4 strain to ganglioside-coated ELISA plates; format: binding, Streptococcus pneumoniae; conditions: short-term incubation with the TIGR4 strain
Method: The ability of the TIGR4, and its nanA and nanB mutants to bind to specific gangliosides is measured. The gangliosides used include mixed gangliosides, asialo-GM1, GM1, GD1a, GD1b, GT1 (Calbiochem) and the GM3 ganglioside (Sigma) The GM3 ganglioside lacks the terminal or internal GalNAcβ1-4Gal sequence involved in pneumococcal binding and is used as a negative control. These mixed, mono-, di- or tri-sialic acid containing gangliosides bind readily to ELISA plates. […] Using ganglioside-coated plates, the ability to attach to these plates by wildtype TIGR4 strain, the stable opaque and transparent phase variants of the TIGR4 strain, the nanA, nanB, and nanA/nanB mutant strains is compared. These analyses include short-term incubation (1 hr) and extended incubations (24 hrs) on ganglioside-coated plates, Attached pneumococci are removed from the ganglioside plates by short incubation (10-15 min.) in Todd Hewitt medium containing 0.5% yeast extract followed by repeated pipetting and plating the released bacteria on blood agar plates. Alternatively 41° C. Todd Hewitt broth agar containing 0.5% yeast extract is poured on top of the attached pneumococci and the colonies are counted through the bottom of the plate. Controls include plates with no pneumococci and plates with no gangliosides but with pneumococci.

PAF-R = PAF-R (Homo sapiens, UniProt P25105); conditions: cited from earlier work
PAF-R, sequence (P25105 whole entry, species assumed): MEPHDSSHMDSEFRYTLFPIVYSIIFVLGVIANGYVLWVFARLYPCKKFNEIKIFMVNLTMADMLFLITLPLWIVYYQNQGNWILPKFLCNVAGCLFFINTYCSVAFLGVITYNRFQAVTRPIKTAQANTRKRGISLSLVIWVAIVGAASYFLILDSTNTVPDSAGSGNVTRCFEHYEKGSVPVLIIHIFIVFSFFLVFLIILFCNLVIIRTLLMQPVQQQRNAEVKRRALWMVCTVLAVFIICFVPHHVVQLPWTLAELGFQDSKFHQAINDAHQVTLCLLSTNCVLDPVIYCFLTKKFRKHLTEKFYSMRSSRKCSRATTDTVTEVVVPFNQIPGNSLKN

[2] = tested on: S. pneumoniae strain EF3030; test: GLS preincubation of S. pneumoniae strain EF3030 before nasal application to xid mice, CFU in tissues; format: in vivo, Streptococcus pneumoniae; conditions: four days after nasal application
Method: Aliquots (3×10^7 CFUs) of S. pneumoniae were incubated for 30 minutes with 20 μg asialo-GM1 (a-GM1) or 125 μg of mixed GLSs (MG) prior to nasal application. The ON/E, OBs, brain and NW, NALT and lungs were collected four days later and analyzed for numbers of S. pneumoniae. The 0 value on the Y-axis represents the absence of detectable CFUs. Indicated are the mean+one SE of 5 mice and the P-values were obtained following statistical analysis with the Student's t-test or the Mann-Whitney two sample rank test, as appropriate for the data examined. The data are representative of two separate experiments.
Eight serial, three-fold dilutions were made of tissues and body fluids in sterile Ringer's solution and plated on blood agar plates containing […] gentamicin sulfate. The CFU were enumerated 24 hr after plating and incubation in a candle jar. The results were expressed as CFUs/organ, per NW or per ml of blood.
To block GLS binding sites, 3×10^7 CFU of S. pneumoniae strain EF3030 were incubated for 30 min on ice with either 20 μg asialo-GM1 from human brain or 125 μg of mixed GLSs (18% GM1, 55% GD1a, 15% GD1b, 10% GT1b, 2% other GLSs) from bovine brain (Calbiochem-Novabiochem Corporation, Inc., La Jolla, Calif.). GLSs were dissolved in PBS and extensively mixed a day prior to use. […] Tissues were analyzed for CPUs four days later.

## VWRLLAPPFSNRLLP [GM1-binding peptide]
[1]
  IC50: 1000 nM
  affinity for GM1: 10^10 M^−1

## GM3 [GM-3]
TIGR4 strain
  binding of pneumococci to coated plates: not

## CCCCCCCCOc1ccccc1C(=O)Nc1ccc(C(=O)OCC[N+](C)(CC)CC)cc1 [octylonium bromide]
PAF-R
  binding to the PAF-R: binds with high affinity

## asialo-GM1
[2]; CNS
  reduced colonization in CNS: 25 fold
[2]; lungs
  reduced colonization in lungs: 63 fold
TIGR4 strain
  binding of pneumococci to coated plates: bind and attachment

## GM1
TIGR4 strain
  binding of pneumococci to coated plates: not
